Assay results from PMC4061029, “A Stable and Reproducible Human Blood-Brain Barrier Model Derived from Hematopoietic Stem Cells” (PLoS ONE, 2014).

Legend:
CD34+-derived ECs [1] = assay: Immunostaining of claudin-1 in treated EC monocultures; assay type: cell-based, human; details: EC monoculture, day 6; BIO 0.5 µM, Wnt3a 6.25 ng/mL
Procedure: (§1) For Wnt signaling experiments, mono- and co-culture systems were used. In monoculture, 8×10^4 CD34^+-ECs were seeded on the Matrigel-coated transwell insert. The cells were then incubated with agonists/ligands (6.25 ng/mL–100 ng/mL Wnt3A (R&D Systems), 6.25 ng/mL–250 ng/mL Wnt7A (Peprotech) or 0.5–5 µM BIO (Sigma)) for 1 or 5 days. Co-cultures were prepared as described before. The CD34^+-derived ECs co-cultured with pericytes for 1 or 6 days were used in the signaling experiments. Agonist (0.5–5 µM BIO) was added into the basolateral compartment while antagonist (0.1–3 µM XAV939 (Selleckbio)) was added in the apical part of the transwell system.
Immunostaining. Cells were fixed in cold methanol/acetone (50%/50% v/v) for 1 min or 4% (v/v) paraformaldehyde (Electron Microscopy Sciences, EMS) for 10 min at room temperature (see Table S1). After permeabilizing the cells with 0.1% (v/v) Triton X-100 (Sigma-Aldrich) for 5-10 min, whenever required, and blocking for 30 min with 1% (w/v) bovine serum albumin (BSA) solution (Sigma-Aldrich) or normal goat serum (10% (v/v), Sigma-Aldrich), the cells were incubated for 1 h with the primary monoclonal antibodies listed in Table S1, at room temperature. […] Cells were examined with a Zeiss LSM 50 confocal microscope or with a Leica DMR fluorescence microscope (Leica Microsystems). […]

CD34+-derived ECs [2] = assay: qRT-PCR of claudin-1 and LEF1 in ECs treated with Wnt ligands; assay type: cell-based, human; details: EC monoculture
Procedure: as §1
Reverse transcription and quantitative real time polymerase chain reaction (qRT-PCR) analysis. CD34^+-ECs cultured in different conditions were homogenized in Trizol reagent (Life Technologies) and total RNA was extracted using the RNeasy Mini Kit (Qiagen), according to manufacturer’s instructions. In all cases, cDNA was prepared from 1 μg total RNA using Taqman Reverse transcription reagents (Applied Biosystems). Non-quantitative RT-PCR was performed using the conditions described in [4] and DNA migrated on a agarose gel electrophoresis (1.5%) with a low range DNA molecular weight marker (Euromedex) to visualize the sizes. Gels were then stained with gel red nucleic acid gel stain (Interchim) and visualized on a UV light transilluminator (Bio-Rad). Quantitative real time PCR (qRT-PCR) was performed using Power SYBR Green PCR Master Mix (Applied Biosystems) and the detection was carried out in a 7500 Fast Real-Time PCR System (Applied Biosystems). Quantification of target genes was performed relatively to the reference GAPDH gene: relative expression = 2^[-(Ctsample^-CtGADPH^)]. Primer sequences are given as supporting information (Table S2).

β-catenin = assay: Wnt signaling experiments: β-catenin expression in monocultures of ECs; assay type: cell-based, human; details: EC monoculture; for expression of active β-catenin: after 1 day; for expression and nuclear localization of total β-catenin: day 3, BIO 0.5 µM, Wnt3a 6.25 ng/mL
Procedure: as §1, with “The cells were then incubated with agonists/ligands (6.25 ng/mL–100 ng/mL Wnt3A (R&D Systems), 6.25 ng/mL–250 ng/mL Wnt7A (Peprotech) or 0.5–5 µM BIO (Sigma)) for 1 or 5 days.” left out
Immunostaining. Cells were fixed in cold methanol/acetone (50%/50% v/v) for 1 min or 4% (v/v) paraformaldehyde (Electron Microscopy Sciences, EMS) for 10 min at room temperature (see Table S1). After permeabilizing the cells with 0.1% (v/v) Triton X-100 (Sigma-Aldrich) for 5-10 min, whenever required, and blocking for 30 min with 1% (w/v) bovine serum albumin (BSA) solution (Sigma-Aldrich) or normal goat serum (10% (v/v), Sigma-Aldrich), the cells were incubated for 1 h with the primary monoclonal antibodies listed in Table S1, at room temperature. After washing, the cells were stained with a secondary antibody for 1 h in the dark at room temperature (Table S1). In each immunofluorescence experiment, an isotype-matched IgG control was used. The nuclei of cells was stained with 4',6-diamidino-2-phenylindole (DAPI; Sigma-Aldrich) or Hoescht reagent (ICN Pharmaceuticals). Cells were mounted using Mowiol (Sigma-Aldrich) containing an anti-fading agent (Dabco, Sigma-Aldrich) or cell-mounting medium from DAKO. Cells were examined with a Zeiss LSM 50 confocal microscope or with a Leica DMR fluorescence microscope (Leica Microsystems). In the last case, images were collected using a Cool SNAP RS Photometrics camera (Leica Microsystems) and were processed using Adobe Photoshop software 5.5 (Adobe systems).
FACS analysis. Cells were dissociated from the culture plate by exposure to Cell Dissociation Buffer (Life Technologies) for 3-5 min and gentle pipetting, centrifuged and finally resuspended in PBS supplemented with 5% (v/v) FBS. The single cell suspensions were aliquoted (2.0×10^5 cells per condition), fixed with 4% (v/v) paraformaldehyde (PFA; EMS) or ice-cold absolute methanol and permeabilized with 0.1% (w/v) Triton X-100 (Fluka) when necessary. The cells were stained with antigen-specific primary antibodies (dilution ratios and list of antibodies are given on Table S1). After the incubation with primary antibodies, cells were incubated with phycoerytrin (PE)-conjugated anti-rabbit (R&D Systems), and PE-conjugated anti-mouse (Santa Cruz) secondary antibodies. FACS Calibur (BD Biosciences) and BD Cell Quest Software (BD Biosciences) were used for the acquisition and analysis of the data.

[3] = tested on: monocultures of CD34+-derived ECs; assay: Wnt signaling experiments: paracellular permeability of treated EC monocultures; assay type: cell-based, human; details: Wnt3a 6.25 ng/mL
Procedure: (§2) Prior to the experiments, HEPES-buffered Ringer’s solution (in some cases EBM-2 medium) was added to empty wells of a 12-well plate (Costar). Filter inserts, containing confluent monolayers of CD34^+-ECs, were subsequently placed in the 12-well plate, filled with compound solution containing the fluorescent integrity marker Lucifer Yellow (20 µM; Life Technologies), and then placed on an orbital shaker. After 1 h, filter inserts were withdrawn from the receiver compartment. Aliquots from the donor solution were taken at the beginning and at the end of the experiments and the fluorescence was quantified. At least three inserts with cells and three without cells were tested in each permeability measurement. Fluorescence detection was carried out on a Synergy H1 multiplates reader (Biotek) using the following excitation/emission wavelength (nm) settings: 432/538; 490/516; 542/570 for Lucifer yellow, Fluorescein Na and Cy3-Human Serum Albumin and Human IgG respectively.
To obtain a concentration-independent transport parameter, the clearance principle was used. The increment in cleared volume was calculated by dividing the amount of compound in the receiver compartment by the drug concentration in the donor compartment. The volume cleared was plotted versus time and the slope estimated by linear regression analysis. The slope of the clearance curve with inserts alone and inserts with cells is equal to PSf and PSt, respectively, where PS (microliters/minute) is the permeability surface area (square centimeter) product. The PS-value for endothelial monolayer (PSe) was calculated. To generate the endothelial permeability coefficient, Pe (cm/min), the PSe value was divided by the surface area of the filter (A in cm^2) insert using the following equation: Pe = [1/PSt−1/PSf]^−1/A. To assess possible adsorption to plastics and non-specific binding to cells, the mass balance (%) was calculated from the amount of compound recovered in both compartments at the end of the experiment divided by the total amount added in the donor compartment at time zero. For Pe determination, mass balance value should be between 80% and 120%.
as §1

P-gp = P-gp (Homo sapiens, UniProt P08183); details: [3H]-vincristine sulphate 66.5 nM, 2 h; 25 μM verapamil or 0.5 μM elacridar
[4] = tested on: cord blood-derived ECs co-cultured with astrocytes; set-up: method as in PMID 24392113; details: BBB model of cord blood-derived ECs co-cultured with astrocytes; cited from earlier work
[5] = tested on: brain-like endothelial cells (BLECs); assay: Endothelial permeability (Pe) to Lucifer yellow, ECs co-cultured with pericytes (BLECs); assay type: in vitro ADME, human; details: day 6, n = 60
Procedure: For co-culture experiments, pericytes were initially seeded on 60-mm gelatin-coated petri dishes and cultured in Dulbecco’s Modified Eagle’s Medium (DMEM) (Life Technologies) supplemented with 20% (v/v) FBS (Life Technologies), 2 mM L-glutamine, 50 µg/mL gentamycin and 1 ng/mL bFGF. The cells reached confluency after 2 days. 45×10^3 cells were seeded into each well of 12-well plates (Costar). […]
Prior to the experiments, HEPES-buffered Ringer’s solution (in some cases EBM-2 medium) was added to empty wells of a 12-well plate (Costar). […] Aliquots from the donor solution were taken at the beginning and at the end of the experiments and the fluorescence was quantified. […] Fluorescence detection was carried out on a Synergy H1 multiplates reader (Biotek) using the following excitation/emission wavelength (nm) settings: 432/538; 490/516; 542/570 for Lucifer yellow, Fluorescein Na and Cy3-Human Serum Albumin and Human IgG respectively.
(§3) To obtain a concentration-independent transport parameter, the clearance principle was used. The increment in cleared volume was calculated by dividing the amount of compound in the receiver compartment by the drug concentration in the donor compartment. […] The PS-value for endothelial monolayer (PSe) was calculated. […]

[6] = tested on: monolayers of CD34+-derived ECs (monoculture); assay: Endothelial permeability (Pe) to Lucifer yellow, ECs in monoculture; assay type: in vitro ADME, human; details: CD34+-derived ECs grown to confluence on filters for 6 days
Procedure: as §2
as §3, with “compartment. The volume cleared was plotted versus time and the slope estimated by linear regression analysis.” for “compartment.”

BLECs = assay: Expression of adhesion molecules by BLECs (FACS); assay type: cell-based, human; details: 10 ng/mL for 24 h
Procedure: Adhesion molecule expression by BLECs was determined by FACS. For these experiments, CD34^+-ECs were cultured with pericytes for 6 days. After co-culture, transwells with BLEC monolayers were transferred to a new 12-well plate. BLECs were treated with 10 ng/mL TNF-α (Peprotech) for 24 h. Untreated BLECs were used as control. Cells were dissociated from the culture plate by exposure to Cell Dissociation Buffer (Life Technologies) for 3–5 min and gentle pipetting, centrifuged and finally resuspended in PBS supplemented with 5% (v/v) FBS. The single cell suspensions were aliquoted (2.0×10^5 cells per condition) and incubated with primary antibodies against human CD40, ICAM1, ICAM2, VCAM1, PECAM1 (Table S1). After the incubation with primary antibodies, cells were incubated with phycoerytrin (PE)-conjugated anti-rabbit (R&D Systems), and PE-conjugated anti-mouse (Santa Cruz) secondary antibodies. FACS Calibur (BD Biosciences) and BD Cell Quest Software (BD Biosciences) were used for the acquisition and analysis of the data.
FACS analysis. Cells were dissociated from the culture plate by exposure to Cell Dissociation Buffer (Life Technologies) for 3-5 min and gentle pipetting, centrifuged and finally resuspended in PBS supplemented with 5% (v/v) FBS. […]

[7] = long-term: 1 day of monoculture + 5 day of treatment, Wnt7a 6.25 ng/mL, BIO 0.5 µM

Chain of P-gp (P08183 whole entry): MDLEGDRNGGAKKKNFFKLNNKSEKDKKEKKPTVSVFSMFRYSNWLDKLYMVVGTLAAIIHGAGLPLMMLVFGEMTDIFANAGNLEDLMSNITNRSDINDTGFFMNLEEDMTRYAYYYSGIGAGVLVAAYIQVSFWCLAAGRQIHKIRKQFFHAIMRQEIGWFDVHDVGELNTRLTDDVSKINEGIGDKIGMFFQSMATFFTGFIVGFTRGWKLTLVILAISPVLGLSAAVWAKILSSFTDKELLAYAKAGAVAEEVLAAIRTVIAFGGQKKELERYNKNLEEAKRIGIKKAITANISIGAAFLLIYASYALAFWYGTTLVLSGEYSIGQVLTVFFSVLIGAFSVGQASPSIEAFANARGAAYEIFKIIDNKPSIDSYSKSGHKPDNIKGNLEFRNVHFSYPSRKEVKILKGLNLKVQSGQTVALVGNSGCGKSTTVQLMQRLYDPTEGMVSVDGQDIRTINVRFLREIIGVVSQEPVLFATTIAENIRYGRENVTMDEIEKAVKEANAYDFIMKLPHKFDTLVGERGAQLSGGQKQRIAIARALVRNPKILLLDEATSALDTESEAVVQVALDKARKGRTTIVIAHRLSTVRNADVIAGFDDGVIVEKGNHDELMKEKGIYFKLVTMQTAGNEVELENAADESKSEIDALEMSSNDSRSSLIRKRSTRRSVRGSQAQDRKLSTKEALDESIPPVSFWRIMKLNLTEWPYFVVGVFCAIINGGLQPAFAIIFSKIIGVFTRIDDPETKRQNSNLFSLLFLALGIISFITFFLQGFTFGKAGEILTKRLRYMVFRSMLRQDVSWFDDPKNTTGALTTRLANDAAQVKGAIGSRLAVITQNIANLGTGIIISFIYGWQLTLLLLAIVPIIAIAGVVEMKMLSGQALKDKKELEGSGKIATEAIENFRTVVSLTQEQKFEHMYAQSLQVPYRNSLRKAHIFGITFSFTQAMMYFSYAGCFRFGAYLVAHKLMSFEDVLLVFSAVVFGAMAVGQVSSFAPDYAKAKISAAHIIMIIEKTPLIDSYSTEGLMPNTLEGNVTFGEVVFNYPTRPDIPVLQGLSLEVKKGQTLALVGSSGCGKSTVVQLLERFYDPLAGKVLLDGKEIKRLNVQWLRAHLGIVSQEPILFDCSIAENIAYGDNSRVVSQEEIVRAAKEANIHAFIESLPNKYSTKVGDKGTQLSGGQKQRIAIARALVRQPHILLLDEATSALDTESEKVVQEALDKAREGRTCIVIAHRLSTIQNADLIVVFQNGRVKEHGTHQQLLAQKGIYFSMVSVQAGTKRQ

O=C1Nc2cc(Br)ccc2/C1=C1/Nc2ccccc2/C1=N\O [BIO]
localization of claudin-1 (CD34+-derived ECs [1]): localization of claudin-1 at the cell-cell contacts
LEF1 gene expression (CD34+-derived ECs [2]): up-regulation
claudin-1 gene expression (CD34+-derived ECs [2]): up-regulation
expression of active β-catenin (β-catenin): increasing
expression and nuclear localization of total β-catenin (β-catenin): increase
paracellular permeability to Lucifer Yellow versus untreated cells [3, 7]: only observed after 5-day treatment

COc1cc2c(cc1OC)CN(CCc1ccc(NC(=O)c3cccc4c(=O)c5cccc(OC)c5[nH]c34)cc1)CC2 [elacridar]
accumulation of vincristine in BLECs on inhibition of P-gp (P-gp): significant increase

Lucifer yellow
Pe to Lucifer yellow [4]: 20.5 ×10⁻⁶ cm/s
permeability to Lucifer yellow [5]: 0.61±0.15×10^−3 cm/min
permeability to Lucifer yellow [6]: 33.3 ×10⁻⁶ cm/s

TNF-α
expression of ICAM-1, ICAM-2, CD40 and VCAM-1 (BLECs): up-regulation

B1: Wnt3a: human recombinant protein Wnt3a, Wnt ligand (protein, UniProt P56704 19-352, looked up)
Protein Wnt-3a: SYPIWWSLAVGPQYSSLGSQPILCASIPGLVPKQLRFCRNYVEIMPSVAEGIKIGIQECQHQFRGRRWNCTTVHDSLAIFGPVLDKATRESAFVHAIASAGVAFAVTRSCAEGTAAICGCSSRHQGSPGKGWKWGGCSEDIEFGGMVSREFADARENRPDARSAMNRHNNEAGRQAIASHMHLKCKCHGLSGSCEVKTCWWSQPDFRAIGDFLKDKYDSASEMVVEKHRESRGWVETLRPRYTYFKVPTERDLVYYEASPNFCEPNPETGSFGTRDRTCNVSSHGIDGCDLLCCGRGHNARAERRREKCRCVFHWCCYVSCQECTRVYDVHTCK
localization of claudin-1 (CD34+-derived ECs [1]): localization of claudin-1 at the cell-cell contacts
LEF1 gene expression (CD34+-derived ECs [2]): up-regulation
claudin-1 gene expression (CD34+-derived ECs [2]): up-regulation
expression of active β-catenin (β-catenin): increasing
expression and nuclear localization of total β-catenin (β-catenin): increase
paracellular permeability to Lucifer Yellow versus untreated cells [3, 7]: statistical lower
paracellular permeability to Lucifer Yellow versus untreated cells ([3]; short-term: 5 days of monoculture + 1 day of treatment, P<0.01, n = 4): statistical lower

B2: Wnt7a: human recombinant protein Wnt7a, Wnt ligand (protein, UniProt O00755 32-349, looked up)
Protein Wnt-7a: LGASIICNKIPGLAPRQRAICQSRPDAIIVIGEGSQMGLDECQFQFRNGRWNCSALGERTVFGKELKVGSREAAFTYAIIAAGVAHAITAACTQGNLSDCGCDKEKQGQYHRDEGWKWGGCSADIRYGIGFAKVFVDAREIKQNARTLMNLHNNEAGRKILEENMKLECKCHGVSGSCTTKTCWTTLPQFRELGYVLKDKYNEAVHVEPVRASRNKRPTFLKIKKPLSYRKPMDTDLVYIEKSPNYCEEDPVTGSVGTQGRACNKTAPQASGCDLMCCGRGYNTHQYARVWQCNCKFHWCCYVKCNTCSERTEMYTCK
paracellular permeability to Lucifer Yellow versus untreated cells [3, 7]: only observed after 5-day treatment
